Source: ChEMBL document CHEMBL1268929, “Design, synthesis, and evaluation of an α-tocopherol analogue as a mitochondrial antioxidant” (2010)
Active and inactive are the calls of the source. The calls are words filed in the database; no cut-off is given here.

Columns and labels:
[1] = system: CCRF-CEM; assay: Antioxidant activity against diethyl maleate-induced intracellular ROS accumulation in human CEM cells at 5 uM pretreated for 1 hr before diethyl maleate challenge measured after 30 mins by flow cytometry; type: functional
[2] = species: Bos taurus; assay: Antioxidant activity against AAPH-induced lipid peroxidation in bovine heart mitochondrial membrane at 50 uM by spectrofluorimetric analysis; type: functional; conditions: Mitochondria

Row | SMILES | Activity [1] | Activity [2]
1 | Cc1c(C)c2c(c(C)c1O)CC[C@@](C)(CCC[C@H](C)CCC[C@H](C)CCCC(C)C)O2 [ALPHA-TOCOPHEROL] | 65% | 
2 | Cc1nc2c(c(C)c1O)CCN2C | 75% | 
3 | Cc1nc2c(c(CC[C@](C)(O)CCC[C@H](C)CCC[C@H](C)CCCC(C)C)c1O)CCN2C | 2% | Active
